# Experimental data taken from patent US9176114B2, “Cell culture model for acquired chemoresistance of chronic myelogenous leukemia and related methods for identifying agents to overcome resistance” (CITY OF HOPE, priority 2007, dated 2015).
# “Also recorded” adds a separate entry of the source.
# Columns and labels:
# KCL-22 cells [1] = test: Resistance assay: relapse of KCL-22 cells in prolonged liquid culture (CML acquired resistance model); assay type: cell-based, human; conditions: for relapse of KCL-22 cells on 5 μM STI-571 in combination / cell death by the inhibitor alone: 300 μM splitomicin or 15 mM nicotinamide; for cell death by the inhibitor alone: first two weeks; for relapse of KCL-22 cells on imatinib (STI-571) in combination with the inhibitor: prolonged culture
# Description: (§1) Cells were maintained in these cultures without changing medium.
# Cells were maintained in these cultures without changing medium. Aliquots of cells were taken out at specified time points and cell numbers counted using a hematocytometer. Cell viability was accessed by trypan blue exclusion where necessary.
# HIC1 = HIC1 expression / SIRT1 level after HDAC and DNMT inhibitors; assay type: cell-based, human; conditions: KCL-22 cells, alone or in combination
# Description: Total cellular RNA with Trizol (Invitrogen) using a standard protocol. First strand DNA was synthesized and HIC1 expression by quantitative real-time RT-PCR using a kit with SYBR Green label (Invitrogen) as per the manufacture's instruction on a BioRad machine OPTICON. The following are the HIC1 primers (spanning introns), 5′-[…]-3′(exon 1a) and 5′-[…]-3′ (Exon 2). [>ref|NT—010718.15|Hs17—10875:1561637-1565694 Homo sapiens chromosome 17 genomic contig, reference assembly]
# SIRT1 expression was analyzed by Western blot using 1:5000 diluted rabbit monoclonal SIRT1 antibody (Epitomics). Controls used were GAPDH or actin as loading controls with rabbit anti-GAPDH (Trevigen) or anti-actin (Sigma) at 1:5000 dilution. GAPDH [>ref|NT—009759.15|Hs12—9916:6497433-6502281 Homo sapiens chromosome 12 genomic contig, reference assembly] primers used are as follows: […]
# BCR-ABL mutants = conditions: cited from earlier work
# [2] = tested on: CML patients with T315I mutation; conditions: human, in vivo; cited from earlier work
# FOXO1 = test: Flow cytometry assay of acetylation of FOXO1 in KCL-22 cells; assay type: cell-based, human; conditions: compound treatment for 24 h
# Protocol: SIRT1 inhibitor-induced acetylation of cellular SIRT1 substrates, Ku70 and FOXO proteins, are determined by immunoprecipitation of these proteins followed by Western blot analysis for acetyl lysine. Acetylation of FOXO1 is also directly examined by flow cytometry-based analysis as done in FIG. 40D.
# SIRT1 = biological target: T1, SIRT1 (Homo sapiens, UniProt Q96EB6); test: FRET-based SIRT1 inhibition assay; conditions: All compounds in 50 μM
# T1 sequence (Q96EB6 1-747): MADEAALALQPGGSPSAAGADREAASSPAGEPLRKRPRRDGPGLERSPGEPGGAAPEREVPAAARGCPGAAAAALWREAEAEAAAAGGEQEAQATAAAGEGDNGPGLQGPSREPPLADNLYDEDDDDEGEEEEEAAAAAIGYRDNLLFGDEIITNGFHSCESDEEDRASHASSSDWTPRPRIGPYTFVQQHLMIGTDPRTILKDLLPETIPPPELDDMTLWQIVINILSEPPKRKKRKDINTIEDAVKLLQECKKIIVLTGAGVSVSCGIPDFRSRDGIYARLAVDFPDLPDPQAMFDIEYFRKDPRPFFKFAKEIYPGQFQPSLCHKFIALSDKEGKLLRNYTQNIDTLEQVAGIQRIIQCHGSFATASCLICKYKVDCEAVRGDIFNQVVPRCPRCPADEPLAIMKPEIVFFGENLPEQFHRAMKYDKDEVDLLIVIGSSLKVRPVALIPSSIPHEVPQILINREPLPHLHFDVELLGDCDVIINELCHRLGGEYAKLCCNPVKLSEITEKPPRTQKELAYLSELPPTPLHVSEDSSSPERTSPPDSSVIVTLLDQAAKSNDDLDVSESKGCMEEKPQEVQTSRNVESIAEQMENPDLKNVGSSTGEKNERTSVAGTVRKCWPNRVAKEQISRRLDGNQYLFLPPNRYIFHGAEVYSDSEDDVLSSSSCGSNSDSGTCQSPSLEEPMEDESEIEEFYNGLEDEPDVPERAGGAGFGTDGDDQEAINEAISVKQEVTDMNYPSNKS
# K562 cells [3] = test: Cell growth, apoptosis (annexin V) and cell cycle analysis; assay type: cell-based, human
# Protocol: (§2) One half million cells per well were seeded in a 24-well plate and at 2 and 4 days after initiation of drug treatment, surviving cells were counted (A, B). […] The percentage of annexin V positive cells including early and late apoptotic cells was plotted underneath FACS charts.
# (§3) Cell apoptosis was analyzed with annexin V kit (BD Pharminggen) as per the manufacturer's instruction.
# KCL-22 cells [4] = test: as above; assay type: cell-based, human
# Protocol: as §2, §3
# SD1 cells = test: Resistance assay in BCR-ABL positive ALL cells; assay type: cell-based, human; conditions: 50 μM sirtinol alone or in combination with STI-571, prolonged culture
# Protocol: as §1
# The ability of sirtinol and imatinib to block resistance related to BCR-ABL mutations and non-mutants was determined in acute lymphocytic leukemia (ALL) cells.
# K562 cells [5] = test: Growth factor-induced transient resistance (serum-free medium, basic supplements, insulin); assay type: cell-based, human
# Protocol: (A) Growth curves of K562 cells in serum medium, and serum-free medium supplied with basic supplements containing 5 μg/ml insulin and 5 μg/ml transferrin (basic) with or without 75 ng/ml EGF, 25 μg/ml HDL or both (EH). […] Relative survival of imatinib treated cells was calculated by comparison to no drug treatment. Pre-incubation for two days renders resistance. […] Since sirtinol is insoluble in SF medium, HDL 25 μg/ml was added to help dissolve the drug. (D) Effects of basic supplements in serum medium. […] Viable cells were counted one and three days after the treatment. […] (F) Effects of insulin in resistance.
# Whether serum-free medium supplied with select growth factors provides a better culture environment for developing CML chemoresistance was determined. Serum-free (SF) medium with insulin, transferring, epidermal growth factor (EGF) and high density lipoprotein (HDL) was used. SF medium with the basic supplements (5 μg/ml insulin and 5 μg/ml transferring) was sufficient to support growth of both K562 cells (FIG. 13A) and KCL-22 cells. […] Sirtinol is able to overcome CML resistance in SF culture.
# Transient resistance conferred by insulin and transferrin supplement is of interest as insulin receptor is overexpressed in about 90% primary CML cells. The key insulin downstream target phosphatidylinositol-3 kinase (PI3K) is required for BCR-ABL mediated transformation and inhibition of PI3K-Akt-mTor pathway has been explored to overcome CML chemoresistance. SIRT1 is a key gene for regulating insulin secretion and directly regulates Akt downstream target FOXO proteins through deacetylation. Therefore, the effect of insulin itself for transient resistance to imatinib and the response of sirtinol treatment were examined.
# Aurora A = test: Expression of Aurora kinases by Western blot in KCL-22M cells; assay type: cell-based, human; conditions: two days of drug treatment
# Solubility = assay type: physicochemical
# [6] = 50 μM sirtinol with 1 μM STI-571
# [7] = two days treatment, PI staining
structure (smiles),measurement,setting,value
"Nc1ncn([C@H]2C[C@H](O)[C@@H](CO)O2)c(=O)n1 [AZA, 5-aza-2-deoxycytidine]",relapse on AZA plus STI-571,KCL-22 cells [1]; 1 μM AZA with STI-571,did successfully block relapse on 2.5 and 5 μM; also recorded: blocked relapse at 2.5 and 5 μM of STI-571
same,reactivation of HIC1 expression / reduction of SIRT1 level,HIC1,could not reactivate HIC1 expression or reduce SIRT1 level
same,growth of KCL-22M cells,KCL-22M cells; 1 μM inhibitor,inhibited its growth but did not promote significant cell death
"CC(=O)N[C@@H](CS)C(=O)O [NAC, N-acetylcysteine]",cytotoxicity,KCL-22 cells [1]; 50 mM NAC,significant cytotoxicity
Cc1cn(-c2cc(NC(=O)c3ccc(C)c(Nc4nccc(-c5cccnc5)n4)c3)cc(C(F)(F)F)c2)cn1 [Nilotinib],BCR-ABL mutants inhibited,BCR-ABL mutants,inhibits most of the known mutants with the exception of the T315I mutation
Cc1cc(Nc2cc(N3CCN(C)CC3)nc(Sc3ccc(NC(=O)C4CC4)cc3)n2)n[nH]1 [VX-680],inhibition of T315I BCR-ABL,BCR-ABL mutants,potently inhibits
same,clinical response,[2],Three CML patients with T315I mutation responded
"O=C(NN=Cc1c(O)ccc2ccccc12)c1ccncc1 [compound 22, N′-((2-hydroxyl-1-naphthyl)methylene)isonicotinohydrazide]",inhibitory activity (block of CML relapse) compared with compound 163580,KCL-22 cells [1],better inhibitory activity than 163580
same,acetylation of FOXO1,FOXO1,outperformed sirtinol and tenovin-6
same,SIRT1 inhibition in FRET-based biochemical assay,SIRT1,outperformed sirtinol and tenovin-6
"CC(=NNC(=O)c1ccncc1)c1ccc2ccccc2c1O [compound 24, N′-(1-(1-hydroxy-2-naphthyl)ethylidene)isonicotinohydrazide]",inhibitory activity (block of CML relapse) compared with compound 163580,KCL-22 cells [1],better inhibitory activity than 163580
same,acetylation of FOXO1,FOXO1,outperformed sirtinol and tenovin-6
same,SIRT1 inhibition in FRET-based biochemical assay,SIRT1,outperformed sirtinol and tenovin-6
Oc1ccc2ccccc2c1C1=NNc2n[nH]c(=S)n2N1 [compound 163580],prevention of CML cell relapse upon imatinib compared with sirtinol (50 μM),KCL-22 cells [1],more effective in preventing CML cell relapse upon imatinib treatment than an effective dose of sirtinol
COc1ccc2nc3cc(Cl)ccc3c(NCCCCN3CCCC3)c2n1.Cl.Cl.Cl [compound 261408],prevention of CML cell relapse upon imatinib compared with sirtinol (50 μM),KCL-22 cells [1],more effective in preventing CML cell relapse upon imatinib treatment than an effective dose of sirtinol
same,toxicity to cells,KCL-22 cells [1],too toxic to cells
Clc1ccc2nc(CCSCCc3nc4ccc(Cl)cc4[nH]3)[nH]c2c1 [compound 628445],prevention of CML cell relapse upon imatinib compared with sirtinol (50 μM),KCL-22 cells [1],more effective in preventing CML cell relapse upon imatinib treatment than an effective dose of sirtinol
CCN(C(C)=O)c1cnc(C=NNC(N)=S)c2ccccc12 [compound 687305],prevention of CML cell relapse upon imatinib compared with sirtinol (50 μM),KCL-22 cells [1],more effective in preventing CML cell relapse upon imatinib treatment than an effective dose of sirtinol
NC(=O)c1cccnc1 [nicotinamide],lowest dose that blocked relapse on imatinib,KCL-22 cells [1],1 µM
same,relapse of KCL-22 cells on 5 μM STI-571 in combination,KCL-22 cells [1],effectively blocked; also recorded: blocked relapse
same,cell death by the inhibitor alone,KCL-22 cells [1],"did not, by themselves, induce significant cell death"
same,relapse of KCL-22 cells on imatinib (STI-571) in combination with the inhibitor,KCL-22 cells [1],blocks relapse
CC(NC(=O)c1ccccc1/N=C/c1c(O)ccc2ccccc12)c1ccccc1 (centres unmarked) [sirtinol],recurrence on nilotinib or dasatinib in combination with SIRT1 inhibitor,KCL-22 cells [1],effectively blocked the recurrence
same,relapse on 1 μM Dasatinib in combination with sirtinol,KCL-22 cells [1],blocked relapse
same,relapse on […] Nilotinib in combination with SIRT1 inhibitor,KCL-22 cells [1],blocked relapse
same,relapse on sirtinol alone,KCL-22 cells [1]; 50 μM sirtinol alone,resulted in relapse after two weeks
same,relapse of KCL-22 cells on imatinib (STI-571) in combination with the inhibitor,KCL-22 cells [1],blocks relapse
same,relapse of KCL-22 cells on imatinib (STI-571) in combination with the inhibitor,KCL-22 cells [1]; listed as Sirtinol,blocked relapse at all dosages of STI-571
same,cell growth,K562 cells [3]; 50 μM sirtinol alone,inhibited the growth
same,"growth inhibition, combination",K562 cells [3]; [6],synergized their inhibitory effects
same,apoptosis (annexin V),K562 cells [3]; sirtinol alone,significantly induced annexin V positive apoptotic cells
same,"apoptosis (annexin V), combination",K562 cells [3]; sirtinol combined with STI-571,induced more dramatic apoptosis than each individual drug
same,cell cycle,K562 cells [3]; [7],rapidly increased sub-G1 and apoptotic fraction
same,cell growth,KCL-22 cells [4]; 50 μM sirtinol alone,inhibited the growth
same,"growth inhibition, combination",KCL-22 cells [4]; [6],synergized their inhibitory effects
same,apoptosis (annexin V),KCL-22 cells [4]; sirtinol alone,significantly induced annexin V positive apoptotic cells
same,"apoptosis (annexin V), combination",KCL-22 cells [4]; sirtinol combined with STI-571,induced more dramatic apoptosis than each individual drug
same,cell cycle,KCL-22 cells [4]; [7],reducing S/G2 and increasing sub-G1 population
same,effect of sirtinol on SD1 cells,SD1 cells,eliminated these cells
same,transient resistance to 1 μM STI-571 from basic supplements in serum medium,K562 cells [5]; 50 μM sirtinol,abolished this transient resistance
same,transient resistance to 1 μM STI-571 from insulin,K562 cells [5]; sirtinol alone or in combination with STI-571,abolished this transient resistance
same,cell killing in SF culture,"K562 cells [5]; sirtinol alone or with STI-571, K562 and KCL-22 cells, no relapse",rapid killing
same,Aurora A protein in KCL-22M cells,Aurora A,degraded
same,effective concentration in vivo (limited by solubility),Solubility,not obtainable in vivo
same,solubility in SF medium,Solubility; serum-free medium,insoluble
same,"cell death of KCL-22M cells, combination",KCL-22M cells; 50 μM sirtinol with 1 μM AZA,induced partial cell death
same,"growth of KCL-22M cells, combination",KCL-22M cells; sirtinol (50 μM) with STI-571 ([…]),able to inhibit cell growth
O=C1CCc2c(ccc3ccccc23)O1 [splitomicin],relapse of KCL-22 cells on 5 μM STI-571 in combination,KCL-22 cells [1],effectively blocked; also recorded: blocked relapse
same,cell death by the inhibitor alone,KCL-22 cells [1],"did not, by themselves, induce significant cell death"
same,relapse of KCL-22 cells on imatinib (STI-571) in combination with the inhibitor,KCL-22 cells [1],blocks relapse
